Source: US12577259B2, “PCSK9 antagonist compounds” (MERCK SHARP & DOHME LLC, priority 2019, dated 2026)

Key:
Format in all cases: binding
PCSK9 [1] = target: T1, PCSK9 (Homo sapiens, UniProt Q8NBP7); assay: PCSK9 Alexa FRET Standard TR-FRET assay; details: biotinylated PCSK9 0.5 nM, 20 nM AF cyclic peptide Reagent A; Ki calculated from IC50 and KD of AF peptide; read-out: Alexa FRET Stdt TR-FRET
T1 construct: biotin (biotinylated); purchased
Protocol: (§1) The following is a description of the assays used to determine activity of compounds of the invention, and any comparator compounds reported, toward PCSK9 antagonism. Biotinylated PCSK9 was obtained commercially.
A separate solution containing 40 nM of the AlexaFluor tagged cyclic peptide is made in the same buffer system. An Echo is used to transfer 0.750 ul of compound to an assay plate followed by the addition of 15 ul of PCSK9+Stept-Eu and 15 ul of AF peptide. […] The reaction is incubated at room temperature for at least two hours prior to fluorescence measurements using an Envision Multilabel Reader. IC50 values are determined by fitting data to a sigmoidal dose-response curve using nonlinear regression. Ki is then calculated from the Ic50 and the KD of AF cyclic peptide. Counts (B-counts) of the europium-labeled PCSK9 are followed to observe if compounds are adversely PCSK9. A fall off of the B-counts likely indicates a false positive of inhibition. Data from this procedure is reported as “A=‘numerical value’ (nanomolar)”

PCSK9 [2] = target: T1, PCSK9; assay: PCSK9 Alexa FRET Plus TR-FRET assay; details: biotinylated PCSK9 0.5 nM, 960 nM AF cyclic peptide Reagent B; Ki calculated from IC50 and KD of AF peptide
Protocol: as §1
An Echo is used to transfer 0.075 ul of compound plus 0.675 ul of DMSO to each well of an assay plate followed by the addition of 15 ul of PCSK9+Stept-Eu and 15 ul of AF peptide. […] The reaction is incubated at room temperature for at least two hours prior to fluorescence measurements using an Envision Multilabel Reader. IC50 values are determined by fitting data to a sigmoidal dose-response curve using nonlinear regression. Ki is then calculated from the Ic50 and the KD of AF cyclic peptide. Counts (B-counts) of the europium-labeled PCSK9 are followed to observe if compounds are adversely affecting PCSK9. […] Data from this procedure is reported as “P=‘numerical value’ (nanomolar)”

PCSK9 [3] = target: T1, PCSK9; assay: PCSK9 Alexa FRET Ultra TR-FRET assay
Protocol: The following is a description of the assays used to determine activity of compounds of the invention, and any comparator compounds reported, toward PCSK9 antagonism. Biotinylated PCSK9 was obtained commercially. […] An Echo is used to transfer 0.015 ul of compound plus 0.735 ul of DMSO to each well of an assay plate followed by the addition of 15 ul of PCSK9+Stept-Eu and 15 ul of AF peptide. […] The reaction is incubated at room temperature for at least two hours prior to fluorescence measurements using an Envision Multilabel Reader. IC50 values are determined by fitting data to a sigmoidal dose-response curve using nonlinear regression. Ki is then calculated from the Ic50 and the KD of AF cyclic peptide. Counts (B-counts) of the europium-labeled PCSK9 are followed to observe if compounds are adversely affecting PCSK9. […] Data from this procedure is reported as “Ki Ultra=‘numerical value’ (data reported is nanomolar)”

[4] = Ki Ultra, biotinylated PCSK9 0.5 nM, 960 nM AF cyclic peptide, Ki calculated from IC50 and KD of AF peptide, read-out: Alexa FRET Ultra TR-FRET

T1 sequence (Q8NBP7 153-692): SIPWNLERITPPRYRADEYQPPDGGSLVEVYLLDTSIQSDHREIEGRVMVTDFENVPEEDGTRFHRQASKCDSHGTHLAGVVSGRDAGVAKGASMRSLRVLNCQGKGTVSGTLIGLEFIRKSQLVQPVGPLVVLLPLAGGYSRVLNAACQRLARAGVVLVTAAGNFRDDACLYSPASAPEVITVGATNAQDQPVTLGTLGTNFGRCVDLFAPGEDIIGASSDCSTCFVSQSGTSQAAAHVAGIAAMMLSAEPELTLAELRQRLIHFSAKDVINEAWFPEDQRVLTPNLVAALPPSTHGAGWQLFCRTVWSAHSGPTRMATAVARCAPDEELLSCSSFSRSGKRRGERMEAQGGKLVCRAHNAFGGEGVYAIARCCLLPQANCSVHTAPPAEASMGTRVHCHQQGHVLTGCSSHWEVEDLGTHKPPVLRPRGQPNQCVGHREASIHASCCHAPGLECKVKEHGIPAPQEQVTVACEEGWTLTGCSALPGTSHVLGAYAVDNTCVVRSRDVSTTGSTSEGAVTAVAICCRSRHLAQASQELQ

Ki (PCSK9 [1]) [nM]	Ki (PCSK9 [2]) [nM]	Ki (PCSK9 [3]; [4]) [nM]	Structure (SMILES)	Ki (PCSK9 [3]) [nM]
< 1.26	< 0.006	–	COc1ccc(C[C@@H]2NC(=O)[C@H]([C@@H](C)O)NC(=O)[C@@H]3[C@@H]4CCN3C(=O)[C@@H]3Cc5cn(c6ccc(F)cc56)CCCCCCN(Cc5ccc(cc5)CCNC(=O)[C@]5(C)CCCN5C2=O)C(=O)CCCCCC(=O)N[C@H](CNC(=O)CCOCCOCC[N+](C)(C)CCNC(=O)COCCOCCNC(=O)COCCOCCNC(=O)CC[C@H](NC(=O)CCCCCCCCCCCCCCC(=O)O)C(=O)O)C(=O)N[C@@H](Cc2cccc(c2)CNC(=O)CO4)C(=O)N3)cc1 [Example 13]	–
< 1.26	< 0.006	0.004	COc1ccc(C[C@@H]2NC(=O)[C@H]([C@@H](C)OCc3cn(CCNC(=O)CCOCCOCC[N+](C)(C)C)nn3)NC(=O)[C@@H]3[C@@H]4CCN3C(=O)[C@@H]3Cc5cn(c6ccc(F)cc56)CCCCCCN(Cc5ccc(cc5)CCNC(=O)[C@]5(C)CCCN5C2=O)C(=O)CCC(=O)N[C@@H](C)C(=O)N[C@H](CNC(=O)COCCOCCNC(=O)COCCOCCNC(=O)CC[C@H](NC(=O)CCCCCCCCCCCCCCCCC(=O)O)C(=O)O)C(=O)N[C@@H](Cc2cccc(c2)CNC(=O)CO4)C(=O)N3)cc1 [Example 7]	–
< 1.26	0.205	0.488	COc1ccc(C[C@@H]2NC(=O)[C@H]([C@@H](C)O)NC(=O)[C@@H]3[C@@H]4CCN3C(=O)[C@@H]3Cc5cn(c6ccc(F)cc56)Cc5cn(nn5)Cc5cc(ccc5CNC(=O)CCCCCC(=O)N[C@H](CNC(=O)COCCOCCNC(=O)CC[C@H](NC(=O)CCOCCOCC[N+](C)(C)CCNC(=O)COCCOCCNC(=O)COCCOCCNC(=O)CCC(NC(=O)CCCCCCCCCCCCCCCCC(=O)O)C(=O)O)C(=O)O)C(=O)N[C@@H](Cc5cccc(c5)C/C=C/CO4)C(=O)N3)CCNC(=O)[C@]3(C)CCCN3C2=O)cc1 (some centres unmarked) [Example 1]	–
< 1.26	< 0.006	0.001	COc1ccc(C[C@@H]2NC(=O)[C@H]([C@@H](C)O)NC(=O)[C@@H]3[C@@H]4CCN3C(=O)[C@@H]3Cc5cn(c6ccc(F)cc56)CCCCCCN(Cc5ccc(cc5)CCNC(=O)[C@]5(C)CCCN5C2=O)C(=O)CCOCCC(=O)N[C@H](CNC(=O)CCOCCOCC[N+](C)(C)CCNC(=O)COCCOCCNC(=O)COCCOCCNC(=O)CCC(NC(=O)CCCCCCCCCCCCCCC(=O)O)C(=O)O)C(=O)N[C@@H](Cc2cccc(c2)CNC(=O)CO4)C(=O)N3)cc1 (some centres unmarked) [Example 11]	–
< 1.26	0.049	0.36	COc1ccc(C[C@@H]2NC(=O)[C@H]([C@@H](C)O)NC(=O)[C@@H]3[C@@H]4CCN3C(=O)[C@@H]3Cc5cn(c6ccc(F)cc56)Cc5cn(nn5)Cc5cc(ccc5CNC(=O)CCCCCC(=O)N[C@H](CNC(=O)CCOCCOCC[N+](C)(C)CCNC(=O)COCCOCCNC(=O)COCCOCCNC(=O)CC[C@H](NC(=O)CC[C@H](NC(=O)CCCCCCCCCCCCCCCCC(=O)O)C(=O)O)C(=O)O)C(=O)N[C@@H](Cc5cccc(c5)C/C=C/CO4)C(=O)N3)CCNC(=O)[C@]3(C)CCCN3C2=O)cc1 [Example 6]	–
< 1.26	0.082	0.43	COc1ccc(C[C@@H]2NC(=O)[C@H]([C@@H](C)O)NC(=O)[C@@H]3[C@@H]4CCN3C(=O)[C@@H]3Cc5cn(c6ccc(F)cc56)Cc5cn(nn5)Cc5cc(ccc5CNC(=O)CCCCCC(=O)N[C@H](CNC(=O)CCOCCOCC[N+](C)(C)CCNC(=O)COCCOCCNC(=O)COCCOCCNC(=O)CC[C@@H](NC(=O)CC[C@@H](NC(=O)CCCCCCCCCCCCCCCCC(=O)O)C(=O)O)C(=O)O)C(=O)N[C@@H](Cc5cccc(c5)C/C=C/CO4)C(=O)N3)CCNC(=O)[C@]3(C)CCCN3C2=O)cc1 [Example 3]	–
< 1.26	0.036	0.13	COc1ccc(C[C@@H]2NC(=O)[C@H]([C@@H](C)O)NC(=O)[C@@H]3[C@@H]4CCN3C(=O)[C@@H]3Cc5cn(c6ccc(F)cc56)Cc5cn(nn5)Cc5cc(ccc5CNC(=O)CCCCCC(=O)N[C@H](CNC(=O)CCOCCOCC[N+](C)(C)CCNC(=O)COCCOCCNC(=O)COCCOCCNC(=O)CC[C@H](NC(=O)CCCCCCCCCCCCCCC(=O)O)C(=O)O)C(=O)N[C@@H](Cc5cccc(c5)C/C=C/CO4)C(=O)N3)CCNC(=O)[C@]3(C)CCCN3C2=O)cc1 [Example 5]	–
< 1.26	0.037	0.16	COc1ccc(C[C@@H]2NC(=O)[C@H]([C@@H](C)O)NCC(=O)[C@@H]3[C@@H]4CCN3C(=O)[C@@H]3Cc5cn(c6ccc(F)cc56)Cc5cn(nn5)Cc5cc(ccc5CNC(=O)CCCCCC(=O)N[C@H](CNC(=O)CCOCCOCC[N+](C)(C)CCOCCNC(=O)COCCOCCNC(=O)COCCOCCNC(=O)CC[C@H](NC(=O)CC[C@H](NC(=O)CCCCCCCCCCCCCCC(=O)O)C(=O)O)C(=O)O)C(=O)N[C@@H](Cc5cccc(c5)C/C=C/CO4)C(=O)N3)CCNC(=O)[C@]3(C)CCCN3C2=O)cc1 [Example 4]	–
< 1.26	0.024	0.14	COc1ccc(C[C@@H]2NC(=O)[C@H]([C@@H](C)O)NC(=O)[C@@H]3[C@@H]4CCN3C(=O)[C@@H]3Cc5cn(c6ccc(F)cc56)Cc5cn(nn5)Cc5cc(ccc5CNC(=O)CCCCCC(=O)N[C@H](CNC(=O)COCCOCC[N+](C)(C)CCNC(=O)COCCOCCNC(=O)COCCOCCNC(=O)CCC(NC(=O)CCCCCCCCOCCCCCCCCC(=O)O)C(=O)O)C(=O)N[C@@H](Cc5cccc(c5)C/C=C/CO4)C(=O)N3)CCNC(=O)[C@]3(C)CCCN3C2=O)cc1 (some centres unmarked) [Example 2]	–
< 1.26	< 0.006	0.002	COc1ccc(C[C@@H]2NC(=O)[C@H]([C@@H](C)O)NC(=O)[C@@H]3[C@@H]4CCN3C(=O)[C@@H]3Cc5cn(c6ccc(F)cc56)CCCCCCN(Cc5ccc(cc5)CCNC(=O)[C@]5(C)CCCN5C2=O)C(=O)CCOCCC(=O)N[C@H](CNC(=O)CCOCCOCC[N+](C)(C)CCNC(=O)COCCOCCNC(=O)COCCOCCNC(=O)CC[C@H](NC(=O)CC[C@H](NC(=O)CCCCCCCCCCCCCCC(=O)O)C(=O)O)C(=O)O)C(=O)N[C@@H](Cc2cccc(c2)CNC(=O)CO4)C(=O)N3)cc1 [Example 12]	–

Structure (SMILES)	Ki (PCSK9 [1]) [nM]	Ki (PCSK9 [2]) [nM]	Ki (PCSK9 [3]; [4]) [nM]	Ki (PCSK9 [3]) [nM]
COc1ccc(C[C@@H]2NC(=O)[C@H]([C@@H](C)O)NC(=O)[C@@H]3[C@@H]4CCN3C(=O)[C@@H]3Cc5cn(c6ccc(F)cc56)CCCCCCN(Cc5ccc(cc5)CCNC(=O)[C@]5(C)CCCN5C2=O)C(=O)CCOCCC(=O)N[C@H](CNC(=O)CCOCCOCC[N+](C)(C)CCNC(=O)COCCOCCNC(=O)COCCOCCNC(=O)CC[C@H](NC(=O)CC[C@H](NC(=O)CCCCCCCCCCCCCCCCC(=O)O)C(=O)O)C(=O)O)C(=O)N[C@@H](Cc2cccc(c2)CNC(=O)CO4)C(=O)N3)cc1 [Example 10]	< 1.26	< 0.006	–	0.004
COc1ccc(C[C@@H]2NC(=O)[C@H]([C@@H](C)Oc3cn(CCNC(=O)CCOCCOCC[N+](C)(C)CCNC(=O)COCCOCCNC(=O)COCCOCCNC(=O)CCC(NC(=O)CC[C@H](NC(=O)CCCCCCCCCCCCCCCCC(=O)O)C(=O)O)C(=O)O)nn3)NC(=O)[C@@H]3[C@@H]4CCN3C(=O)[C@@H]3Cc5cn(c6ccc(F)cc56)CCCCCCN(Cc5ccc(cc5)CCNC(=O)[C@]5(C)CCCN5C2=O)C(=O)CCC(=O)N[C@@H](C)C(=O)N[C@H](CNC(=O)CCOCCOCC[N+](C)(C)C)C(=O)N[C@@H](Cc2cccc(c2)C/C=C/CO4)C(=O)N3)cc1 (some centres unmarked) [Example 9]	< 1.26	< 0.006	–	0.003
COc1ccc(C[C@@H]2NC(=O)[C@H]([C@@H](C)OCc3cn(CCNC(=O)COCCOCCNC(=O)COCCOCCNC(=O)CC[C@H](NC(=O)CCCCCCCCCCCCCCCCC(=O)O)C(=O)O)nn3)NC(=O)[C@@H]3[C@@H]4CCN3C(=O)[C@@H]3Cc5cn(c6ccc(F)cc56)CCCCCCN(Cc5ccc(cc5)CCNC(=O)[C@]5(C)CCCN5C2=O)C(=O)CCC(=O)N[C@@H](C)C(=O)N[C@H](CNC(=O)CCOCCOCC[N+](C)(C)C)C(=O)N[C@@H](Cc2cccc(c2)CNC(=O)CO4)C(=O)N3)cc1 [Example 8]	< 1.26	< 0.006	–	0.006
